≈ marks a conversion by molar mass, not a printed value. Where “and” joins values, the source holds several entries; their conditions need not be identical. Equal values may be shown once.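 Where inhibition never reached the appropriate level, the endpoint shown equals the highest concentration tested. Otherwise, values were interpolated linearly from a five-concentration, 48-hour dose response in 96-well plates. The concentration for 50% growth inhibition is given as GI50. At the TGI there is no net growth.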
Legend:
Experiment in all cases: NCI tumour cell line growth inhibition, 48 h
UO-31 renal = system: UO-31 renal
RXF-631 renal = system: RXF-631 renal
ACHN renal = system: ACHN renal
DLD-1 colon = system: DLD-1 colon
OVCAR-3 ovarian = system: OVCAR-3 ovarian
K-562 leukemia = system: K-562 leukemia
PC-3 prostate = system: PC-3 prostate
UACC-62 melanoma = system: UACC-62 melanoma
SK-MEL-5 melanoma = system: SK-MEL-5 melanoma
SK-MEL-2 melanoma = system: SK-MEL-2 melanoma
KM20L2 colon = system: KM20L2 colon
OVCAR-8 ovarian = system: OVCAR-8 ovarian
LXFL 529 NSCLC = system: LXFL 529 NSCLC
OVCAR-4 ovarian = system: OVCAR-4 ovarian
MDA-MB-231 breast = system: MDA-MB-231 breast
MCF7 breast = system: MCF7 breast
SF-295 CNS = system: SF-295 CNS
HOP-18 NSCLC = system: HOP-18 NSCLC
T-47D breast = system: T-47D breast
HCT-15 colon = system: HCT-15 colon
COLO 205 colon = system: COLO 205 colon
786-0 renal = system: 786-0 renal
HOP-92 NSCLC = system: HOP-92 NSCLC
HT29 colon = system: HT29 colon
EKVX NSCLC = system: EKVX NSCLC
CCRF-CEM leukemia = system: CCRF-CEM leukemia
NCI-H522 lung = system: NCI-H522 lung
SK-MEL-28 melanoma = system: SK-MEL-28 melanoma
HCT-116 colon = system: HCT-116 colon
HCC-2998 colon = system: HCC-2998 colon
HOP-62 NSCLC = system: HOP-62 NSCLC
U251 CNS = system: U251 CNS
RXF 393 renal = system: RXF 393 renal
KM12 colon = system: KM12 colon
DMS 273 small cell lung = system: DMS 273 small cell lung
M19-MEL melanoma = system: M19-MEL melanoma

Structure (SMILES): CC(C)c1cccc(O)c(=O)c1
- TGI (UO-31 renal): 35.5 µg/mL and > 71.1 µM
- TGI (RXF-631 renal): > 100 µM
- GI50 (ACHN renal): 1.75 mg/L (≈ 10.6 µM)
- TGI (ACHN renal): 18.3 µg/mL and 48.9 µM
- TGI (DLD-1 colon): > 100 µM
- GI50 (OVCAR-3 ovarian): 2.5 mg/L (≈ 15.2 µM)
- GI50 (K-562 leukemia): 2.38 mg/L (≈ 14.5 µM)
- GI50 (PC-3 prostate): 2.6 mg/L (≈ 15.8 µM)
- TGI (PC-3 prostate): > 75 mg/L
- GI50 (UACC-62 melanoma): 4.17 mg/L (≈ 25.4 µM)
- TGI (UACC-62 melanoma): 28.6 µg/mL and > 41.3 µM
- GI50 (SK-MEL-5 melanoma): 1.35 mg/L (≈ 8.24 µM)
- GI50 (SK-MEL-2 melanoma): 6.86 mg/L (≈ 41.8 µM)
- TGI (SK-MEL-2 melanoma): 32.4 µg/mL and 95.7 µM
- TGI (KM20L2 colon): > 100 µM
- GI50 (OVCAR-8 ovarian): 2 mg/L (≈ 12.2 µM)
- TGI (LXFL 529 NSCLC): > 100 µM
- TGI (OVCAR-4 ovarian): > 100 µM
- GI50 (MDA-MB-231 breast): 6.73 mg/L (≈ 41 µM)
- TGI (MDA-MB-231 breast): > 75 mg/L
- GI50 (MCF7 breast): 1.46 mg/L (≈ 8.87 µM)
- TGI (MCF7 breast): 5.08 mg/L (≈ 30.9 µM)
- GI50 (SF-295 CNS): 2.52 mg/L (≈ 15.3 µM)
- TGI (SF-295 CNS): 71.6 µg/mL and > 100 µM
- TGI (HOP-18 NSCLC): > 100 µM
- GI50 (T-47D breast): 0.0075 mg/L (≈ 0.0457 µM)
- TGI (T-47D breast): 0.0075 mg/L (≈ 0.0457 µM)
- GI50 (HCT-15 colon): 0.997 mg/L (≈ 6.07 µM)
- TGI (HCT-15 colon): > 75 µg/mL and > 100 µM
- GI50 (COLO 205 colon): 1.21 mg/L (≈ 7.35 µM)
- GI50 (786-0 renal): 5.54 mg/L (≈ 33.8 µM)
- TGI (786-0 renal): > 75 µg/mL and > 100 µM
- TGI (HOP-92 NSCLC): > 100 µM
- GI50 (HT29 colon): 1.34 mg/L (≈ 8.17 µM)
- GI50 (EKVX NSCLC): 1.45 mg/L (≈ 8.81 µM)
- GI50 (CCRF-CEM leukemia): 0.312 mg/L (≈ 1.9 µM)
- GI50 (NCI-H522 lung): 5.16 mg/L (≈ 31.4 µM)
- TGI (NCI-H522 lung): 28 µg/mL and > 73.1 µM
- GI50 (SK-MEL-28 melanoma): 0.138 mg/L (≈ 0.843 µM)
- GI50 (HCT-116 colon): 3.81 mg/L (≈ 23.2 µM)
- TGI (HCT-116 colon): > 75 µg/mL and > 40.2 µM
- GI50 (HCC-2998 colon): 1.63 mg/L (≈ 9.95 µM)
- GI50 (HOP-62 NSCLC): 5.57 mg/L (≈ 33.9 µM)
- TGI (HOP-62 NSCLC): > 75 µg/mL and > 100 µM
- GI50 (U251 CNS): 1.23 mg/L (≈ 7.51 µM)
- GI50 (RXF 393 renal): 0.116 mg/L (≈ 0.706 µM)
- GI50 (KM12 colon): 2.41 mg/L (≈ 14.7 µM)
- TGI (KM12 colon): > 75 µg/mL and > 100 µM
- TGI (DMS 273 small cell lung): > 48.4 µM
- TGI (M19-MEL melanoma): > 59.3 µM
